Assays:
[1] = test system: patients having either mild or very mild cognitive deterioration; assay: Double-blind 16-week clinical trial (CDR, Barthel's, Folstein's tests, Global Clinical Impression); format: in vivo, human; settings: for Global Clinic Impression: after 16-week treatment, code 1 highly worsened, 4 unchanged, 5 slightly improved, 6 improved, 7 highly improved; for BARTHEL's test, final mark / CDR test, final mark / FOLSTEIN's test, final mark: group average after 16-week treatment, twice a day; for FOLSTEIN's test, final mark: higher mark = favorable; for BARTHEL's test, initial mark / FOLSTEIN's test, initial mark / CDR test, initial mark: group average at baseline, before 16-week treatment; for CDR test, initial mark: twice a day oral
From the text: Seventy nine patients having either mild or very mild cognitive deterioration with the following inclusion criterion:
Antecedents of ischaemic cerebrovascular pathology with symptoms or only with expression in brain computerized tomography (silent infarct). In case of focal or acute multimodal symptoms, at least a three-month period should elapse since symptoms evidence before being included in the tests.
Severity of cognitive deterioration was of the very mild or mild type CDR scale 0,5 and 1 (Clinical Dementia Rating).
Patients were selected from the Neurology area of four different hospitals. In each center a randomization list for parallel groups was established. Tablets in the three groups had the same aspect so as to preserve the double-blind characteristic of the study.
For diagnosis of cognitive deterioration and its association to ischaemic cerebrovascular disorders the criteria proposed in 1992 by the California University, USA, were used, in both their probable and possible forms.
The degree of severity of the cognitive disorder is limited to a borderline, mild condition, according to CDR scale in its points 0.5 and 1. A Hamilton test is carried out in order to detect a depressive condition, which shall contribute to the differential diagnosis of a pseudo dementia.
The Barthel index was used for evaluation of everyday life.
During the initial period a washing in medicine intake was made, in the weeks −4 to 0, the latter being the baseline for those drugs considered to be vasoactive or nootropic.
The observation period lasted 16 weeks, so patients were randomized in three groups which received as double-blind treatment:
Idebenone 45 mg, twice a day.
Nimodipine 30 mg, twice a day.
Idebenone 45 mg+Nimodipine 30 mg, twice a day.
Therapeutic efficacy criteria were based on the results of Folstein's, CDR and Barthel's scales and Global Clinical Impression (GCI). In order to evaluate therapeutic efficacy between the group receiving the combined dosage and the groups receiving the idebenone or nimodipine alone, a statistically significant improvement in one of the following criteria should exist: […]

[2] = oral, multiple doses of 45 or 100 mg, healthy volunteers; cited from earlier work
[3] = in vivo; cited from earlier work

Row | SMILES | Global Clinic Impression [1] | BARTHEL's test, final mark [1] | CDR test, final mark [1] | FOLSTEIN's test, final mark [1] | BARTHEL's test, initial mark [1] | FOLSTEIN's test, initial mark [1] | CDR test, initial mark [1] | accumulation after repeated doses [2] | delivery to tissues [3]
1 | COC1=C(OC)C(=O)C(CCCCCCCCCCO)=C(C)C1=O [Group A, 6-(10-hydroxydecil)-2,3-dimethoxy-5-methyl-1,4-benzoquinone] | 5.0 | 87.6 | 0.64 | 24.8 | 87.2 | 22.8 | 0.68 | Accumulation does not occur | widely delivered to different tissues, including the brain
2 | COCCOC(=O)C1=C(C)NC(C)=C(C(=O)OC(C)C)C1c1cccc([N+](=O)[O-])c1 (stereo not shown) [Group B, 1,4-dyhidro-5-(isopropoxycarbonyl)-2,6-dimethyl-4-(3-nitrophenyl)-3-pyridine-carboxylate of 2-methoxyethyl] | 4.9 | 81.1 | 0.63 | 23.9 | 80.7 | 22.5 | 0.67 |  | 
